Measurements published in paper PMC11091888, “Evaluation of Fusobacterium nucleatum Enoyl-ACP Reductase (FabK) as a Narrow-Spectrum Drug Target” (ACS Infectious Diseases, 2024).
Converted amounts (≈) assume the structure as drawn. Where two headings read alike, the source gives them in different places.

Experiments:
[1] = tested on: F. nucleatum 23726 mutants JR1-JR4; test: MIC against 681-resistant mutants of F. nucleatum 23726; format: cell-based, Fusobacterium nucleatum; details: for MIC: Fusobacterium nucleatum
Method: (§1) Compounds were twofold serially diluted (100–0.2 μg/mL) across a 96-well plate in 100 μL of media used for the specific organism (Table S4). For anaerobes, plates were incubated anaerobically at 37 °C for 1 h and then inoculated with approximately 10^5 to 10^6 CFU/well. Plates were incubated at 37 °C for up to 48 h, and MICs were read by visual inspection.
Overnight cultures of F. nucleatum 23726 were diluted 1:50 in fresh Columbia broth, which was used to inoculate 96-well plates containing twofold serial dilutions of compound 681. After 48 h of incubation, cultures were recovered from wells one dilution below the MIC, and this was used to establish the inocula for the subsequent passage into 96-well plates containing 681. This process was repeated until cultures grew at 8× the original MIC for two consecutive passages. Cultures were then plated onto Columbia blood agar plates and incubated for 72 h at 37 °C. Single colonies were collected into Columbia broth with 0.39 μg/mL of 681 and cultured for up to 48 h and then plated onto selective Columbia blood agar plates to further purify putative 681-resistant colonies.

Streptococci = test: MIC, all tested Streptococci; format: cell-based; details: text summary of Table 4; read-out: MICs against all tested Streptococci
Method: as §1

With `CS(=O)(=O)c1ccc2nc(NC(=O)NCc3nc(-c4ccc(Br)cc4)c[nH]3)sc2c1` [Compound 681, 1-((4-(4-bromophenyl)-1H-imidazole-2-yl)methyl)-3-(6-(methylsulfonyl)benzo[d]thiazol-2-yl)urea] the “MIC against mutant JR2” value ([1]; 12 bp deletion upstream of fabX) was 3.1 µg/mL (≈ 6.12 µM), the MIC ([1]; read-out: MIC against mutant JR2) was 6.3 µg/mL (≈ 12.4 µM) and the MIC ([1]; read-out: MICs against mutants JR1-JR4) was 3.1 to 12.5 µg/mL (≈ 6.12 to 24.7 µM). The “MIC against mutant JR3” value ([1]; fabK TSS + 1: C > T) was 3.1 µg/mL and the MIC (Streptococci) was < 1.6 µg/mL.
